Measured values taken from ChEMBL document CHEMBL1152872, “Discovery of N-{[1-(propylsulfonyl)-4-pyridin-2-ylpiperidin-4-yl]methyl}benzamides as novel, selective and potent GlyT1 inhibitors” (Bioorg Med Chem Lett, 2009).

Columns and labels:
[1] = molecular target: T1, Sodium- and chloride-dependent glycine transporter 1 (Homo sapiens, UniProt P48067); test: Inhibition of human glycine transporter 1
T1 sequence (P48067 whole entry): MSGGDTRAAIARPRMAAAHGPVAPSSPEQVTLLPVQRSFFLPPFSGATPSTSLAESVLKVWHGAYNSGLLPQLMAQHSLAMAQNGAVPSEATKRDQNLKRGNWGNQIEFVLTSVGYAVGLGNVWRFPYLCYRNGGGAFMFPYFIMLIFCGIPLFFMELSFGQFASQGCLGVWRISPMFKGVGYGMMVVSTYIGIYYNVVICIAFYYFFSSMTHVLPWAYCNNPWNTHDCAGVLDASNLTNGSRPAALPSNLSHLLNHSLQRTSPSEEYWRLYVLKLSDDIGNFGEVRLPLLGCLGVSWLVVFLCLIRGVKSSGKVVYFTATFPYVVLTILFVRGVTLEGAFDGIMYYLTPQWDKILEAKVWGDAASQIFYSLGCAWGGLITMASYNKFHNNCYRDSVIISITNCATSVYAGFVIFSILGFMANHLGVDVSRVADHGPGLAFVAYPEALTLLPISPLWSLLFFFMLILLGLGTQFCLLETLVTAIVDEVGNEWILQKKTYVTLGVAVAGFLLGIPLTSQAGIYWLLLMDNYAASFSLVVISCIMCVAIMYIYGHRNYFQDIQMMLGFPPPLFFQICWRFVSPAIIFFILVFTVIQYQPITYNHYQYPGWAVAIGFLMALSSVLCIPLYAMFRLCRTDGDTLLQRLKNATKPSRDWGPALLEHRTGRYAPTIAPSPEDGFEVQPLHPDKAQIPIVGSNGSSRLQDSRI

[2] = molecular target: T2, Sodium- and chloride-dependent glycine transporter 2 (Homo sapiens, UniProt Q9Y345); test: Inhibition of glycine transporter 2
T2 sequence (Q9Y345 whole entry): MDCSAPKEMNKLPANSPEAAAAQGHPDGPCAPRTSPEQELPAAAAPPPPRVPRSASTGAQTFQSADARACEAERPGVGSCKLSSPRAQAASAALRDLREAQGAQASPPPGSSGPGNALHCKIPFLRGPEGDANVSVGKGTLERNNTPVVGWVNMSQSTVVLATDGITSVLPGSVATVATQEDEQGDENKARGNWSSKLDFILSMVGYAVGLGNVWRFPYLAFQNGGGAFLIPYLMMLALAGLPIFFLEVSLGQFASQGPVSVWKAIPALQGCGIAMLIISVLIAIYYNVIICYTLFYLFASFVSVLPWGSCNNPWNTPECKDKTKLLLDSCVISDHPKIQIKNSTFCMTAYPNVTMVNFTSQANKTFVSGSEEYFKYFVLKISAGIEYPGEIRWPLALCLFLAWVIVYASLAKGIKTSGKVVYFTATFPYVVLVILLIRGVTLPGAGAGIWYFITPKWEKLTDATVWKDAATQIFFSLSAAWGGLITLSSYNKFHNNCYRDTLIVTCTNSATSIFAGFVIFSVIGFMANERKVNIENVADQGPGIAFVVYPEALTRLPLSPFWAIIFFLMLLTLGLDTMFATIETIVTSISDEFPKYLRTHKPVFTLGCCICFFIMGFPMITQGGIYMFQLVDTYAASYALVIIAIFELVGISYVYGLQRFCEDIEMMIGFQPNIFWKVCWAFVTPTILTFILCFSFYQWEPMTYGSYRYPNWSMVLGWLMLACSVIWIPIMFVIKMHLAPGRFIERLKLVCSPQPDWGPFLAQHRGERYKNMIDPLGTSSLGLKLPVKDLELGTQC

[3] = molecular target: T3, Sodium- and chloride-dependent taurine transporter (Homo sapiens, UniProt P31641); test: Inhibition of taurine transporter; assay type: single protein
T3 sequence (P31641 whole entry): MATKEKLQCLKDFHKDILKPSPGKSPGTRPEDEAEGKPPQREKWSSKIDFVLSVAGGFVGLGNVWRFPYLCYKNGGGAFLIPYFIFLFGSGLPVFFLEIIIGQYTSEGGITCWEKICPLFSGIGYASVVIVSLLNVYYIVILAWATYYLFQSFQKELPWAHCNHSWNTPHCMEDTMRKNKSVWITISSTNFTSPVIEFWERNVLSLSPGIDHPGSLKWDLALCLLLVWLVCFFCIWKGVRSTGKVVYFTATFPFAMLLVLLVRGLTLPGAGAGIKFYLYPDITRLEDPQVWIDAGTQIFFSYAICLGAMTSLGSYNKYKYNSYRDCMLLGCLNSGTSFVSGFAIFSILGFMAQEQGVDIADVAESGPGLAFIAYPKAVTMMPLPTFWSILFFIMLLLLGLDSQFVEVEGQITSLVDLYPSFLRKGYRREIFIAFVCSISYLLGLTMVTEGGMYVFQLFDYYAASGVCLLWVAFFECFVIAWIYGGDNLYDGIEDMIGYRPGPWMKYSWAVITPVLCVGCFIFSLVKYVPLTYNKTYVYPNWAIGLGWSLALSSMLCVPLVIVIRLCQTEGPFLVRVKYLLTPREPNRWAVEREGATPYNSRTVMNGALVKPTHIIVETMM

[4] = Solubility in water; assay type: physicochemical
[5] = molecular target: T1, Sodium- and chloride-dependent glycine transporter 1; test: Inhibition of glycine transporter 1 by HTS assay

Row | Compound | IC50 [1] [nM] | IC50 [2] [nM] | IC50 [3] [nM] | solubility [4] [µg/mL] | IC50 [5] [nM]
1 | CCCS(=O)(=O)N1CCC(c2ccccn2)([C@H](C)NC(=O)c2ccccc2OC(F)(F)F)CC1 | 17.7 | > 30000 | > 30000 | – | –
2 | CCCS(=O)(=O)N1CCC(c2ccccn2)([C@H](C)NC(=O)c2ccc(Cl)cc2Cl)CC1 | 3 | > 30000 | > 30000 | – | –
3 | CCCS(=O)(=O)N1CCC(CNC(=O)c2ccc(Cl)cc2Cl)(c2cccnc2)CC1 | 69.3 | – | – | – | –
4 | CCCS(=O)(=O)N1CCC(CNC(=O)c2ccc(Cl)cc2Cl)(c2ccncc2)CC1 | 79.3 | – | – | – | –
5 | CCCS(=O)(=O)N1CCC(CNC(=O)c2ccccc2C)(C2CCCCN2C)CC1 (stereo unspecified) | 148 | – | – | – | –
6 | CCCS(=O)(=O)N1CCC(CNC(=O)c2ccccc2OC(F)(F)F)(C2CCCCN2C)CC1 (stereo unspecified) | 21.2 | – | – | – | –
7 | CCCS(=O)(=O)N1CCC(c2ccccn2)([C@@H](C)NC(=O)c2ccccc2OC(F)(F)F)CC1 | 2590 | – | – | – | –
8 | CCCS(=O)(=O)N1CCC(c2ccccn2)([C@@H](C)NC(=O)c2ccc(Cl)cc2Cl)CC1 | 661 | – | – | – | –
9 | CCCS(=O)(=O)N1CCC(c2ccccn2)([C@@H](C)NC(=O)c2cc(F)cc(F)c2Cl)CC1 | 576 | – | – | – | –
10 | CCCS(=O)(=O)N1CCC(CNC(=O)c2ccccc2Cl)(C2CCCCN2C)CC1 (stereo unspecified) | 58.9 | – | – | – | –
11 | CCCS(=O)(=O)N1CCC(CNC(=O)c2cc(F)cc(F)c2Cl)(C2CCCCN2C)CC1 (stereo unspecified) | 43.1 | – | – | – | –
12 | CCCS(=O)(=O)N1CCC(CNC(=O)c2ccccc2)(c2cccc(C)n2)CC1 | 54.7 | > 30000 | > 30000 | – | –
13 | CCCS(=O)(=O)N1CCC(CNC(=O)c2c(Cl)ccc(Cl)c2F)(c2ccccn2)CC1.Cl | – | – | – | 570 | –
14 | CCCS(=O)(=O)N1CCC(CNC(=O)c2ccc(Cl)cc2Cl)(c2cccc(OC)n2)CC1 | 7.4 | > 30000 | > 30000 | – | –
15 | CCCS(=O)(=O)N1CCC(CNC(=O)c2ccccc2)(c2cccc(N3CCOCC3)n2)CC1 | > 5000 | – | – | – | –
16 | CCCS(=O)(=O)N1CCC(c2ccccc2)([C@H](C)NC(=O)c2c(N)cccc2Cl)CC1 | – | – | – | – | 2.6
17 | CCCS(=O)(=O)N1CCC(CNC(=O)c2ccccc2F)(c2ccccn2)CC1 | 49.4 | > 30000 | > 30000 | – | –
18 | CCCS(=O)(=O)N1CCC(CNC(=O)c2ccccc2Cl)(c2cccc(N3CCOCC3)n2)CC1 | 482 | – | – | – | –
19 | CCCS(=O)(=O)N1CCC(CNC(=O)c2ccc(Cl)cc2Cl)(c2cccc(N3CCOCC3)n2)CC1 | 412 | – | – | – | –
20 | CCCS(=O)(=O)N1CCC(CNC(=O)c2c(Cl)cccc2Cl)(c2ccccn2)CC1 | 6.6 | > 30000 | > 30000 | – | –
21 | CCCS(=O)(=O)N1CCC(CNC(=O)c2c(N)cccc2Cl)(c2ccccn2)CC1 | 6.9 | > 30000 | > 30000 | – | –
22 | CCCS(=O)(=O)N1CCC(CNC(=O)c2ccccc2OC)(c2ccccc2)CC1 | – | – | – | – | 130

Row | Compound | IC50 [1] [nM] | IC50 [2] [nM] | IC50 [3] [nM] | solubility [4] [µg/mL] | IC50 [5] [nM]
23 | CCCS(=O)(=O)N1CCC(CNC(=O)c2ccccc2Cl)(c2ccccn2)CC1 | 11.9 | > 30000 | > 30000 | – | –
24 | CCCS(=O)(=O)N1CCC(CNC(=O)c2c(F)ccc(F)c2Cl)(c2ccccn2)CC1 | 5.7 | > 30000 | > 30000 | – | –
25 | CCCS(=O)(=O)N1CCC(CNC(=O)c2ccc(Cl)cc2Cl)(c2cccc(C)n2)CC1 | 2.5 | > 30000 | > 30000 | – | –
26 | CCCS(=O)(=O)N1CCC(CNC(=O)c2ccc(Cl)cc2Cl)(C2CCCCN2C)CC1 (stereo unspecified) | 9.5 | – | – | – | –
27 | CCCS(=O)(=O)N1CCC(CNC(=O)c2ccc(Cl)cc2)(c2ccccn2)CC1 | 103 | > 30000 | > 30000 | – | –
28 | CCCS(=O)(=O)N1CCC(CNC(=O)c2cccc(Cl)c2)(c2ccccn2)CC1 | 517 | > 30000 | > 30000 | – | –
29 | CCCS(=O)(=O)N1CCC(CNC(=O)c2ccc(Cl)c(Cl)c2)(c2ccccn2)CC1 | 131 | > 30000 | > 30000 | – | –
30 | CCCS(=O)(=O)N1CCC(CNC(=O)c2cccc(C)c2)(c2ccccn2)CC1 | 833 | > 30000 | > 30000 | – | –
31 | CCCS(=O)(=O)N1CCC(CNC(=O)c2ccccc2)(c2cccc(OC)n2)CC1 | 48.3 | > 30000 | > 30000 | – | –
32 | CCCS(=O)(=O)N1CCC(CNC(=O)c2ccccc2Cl)(c2cccc(OC)n2)CC1 | 6.9 | > 30000 | > 30000 | – | –
33 | CCCS(=O)(=O)N1CCC(CNC(=O)c2ccccc2C(F)(F)F)(c2ccccn2)CC1 | 31.3 | > 30000 | > 30000 | – | –
34 | CCCS(=O)(=O)N1CCC(CNC(=O)c2ccccc2Cl)(c2cc(C)ccn2)CC1 | 38.3 | > 30000 | > 30000 | – | –
35 | CCCS(=O)(=O)N1CCC(CNC(=O)c2ccc(Cl)cc2Cl)(c2cc(C)ccn2)CC1 | 3.5 | > 30000 | > 30000 | – | –
36 | CCCS(=O)(=O)N1CCC(CNC(=O)c2ccccc2OC(F)(F)F)(c2ccccn2)CC1 | 19.4 | > 30000 | > 30000 | – | –
37 | CCCS(=O)(=O)N1CCC(c2ccccn2)([C@H](C)NC(=O)c2cc(F)cc(F)c2Cl)CC1 | 4 | > 30000 | > 30000 | – | –
38 | CCCS(=O)(=O)N1CCC(CNC(=O)c2ccccc2)(c2cc(C)ccn2)CC1 | 129 | > 30000 | > 30000 | – | –
39 | CCCS(=O)(=O)N1CCC(CNC(=O)c2ccc(Cl)cc2Cl)(c2ccccn2)CC1.Cl | – | – | – | 850 | –
40 | CCCS(=O)(=O)N1CCC(CNC(=O)c2ccccc2Cl)(c2cccc(C)n2)CC1 | 3 | > 30000 | > 30000 | – | –
41 | CCCS(=O)(=O)N1CCC(CNC(=O)c2ccccc2)(C2CCCCN2C)CC1 (stereo unspecified) | 3310 | – | – | – | –
42 | CCCS(=O)(=O)N1CCC(CNC(=O)c2ccc(Cl)cc2Cl)(c2ccccn2)CC1 | 4.4 | > 30000 | > 30000 | – | –
43 | CCCS(=O)(=O)N1CCC(CNC(=O)c2ccccc2)(c2ccccn2)CC1 | 107 | > 30000 | > 30000 | – | –
44 | CCCS(=O)(=O)N1CCC(CNC(=O)c2ccccc2C)(c2ccccn2)CC1 | 19.5 | > 30000 | > 30000 | – | –
